We go through twelve molecules from PubChem BioAssay (NCI).

Values joined by “and” are separate entries in the source; they are usually repeats but may differ in a detail not shown here. Identical values can stand only once.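 Compound exposure: 48 hours, 5 concentrations, 96-well plates. GI50: concentration for 50% inhibition of growth. TGI is the concentration that stops growth completely.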

Common to all, as to experiment: inhibition of tumour cell growth, NCI panel, 48 h
In experiment [1] the test system is 786-0 renal.
Experiment [2] concerns A549 NSCLC.
Experiment [3] relates to CCRF-CEM leukemia.
The test system of experiment [4] is HOP-92 NSCLC.
Experiment [5] relates to LOX IMVI melanoma.
For experiment [6], the system named is MALME-3M melanoma.
Experiment [7] relates to MDA-MB-435.
Experiment [8] deals with MOLT-4 leukemia.
Experiment [9] has as its system OVCAR-4 ovarian.
The subject of experiment [10] is SK-MEL-2 melanoma.
Experiment [11] deals with SW-620 colon.

In the case of `CC1=CC(=O)CC2(C)CCC(C(C)CC(=O)CC(C)C)CC12OO` (stereo not given), the TGI in [1] is 22.7 µM and 26 µM; in experiment [2] it was 30 µM and 31.1 µM; in [3] it was 59.8 µM and 46.6 µM; in experiment [4] it was 31 µM and 37 µM; in experiment [5] it was 31.5 µM and 27.9 µM; in experiment [6], > 100 µM and 36.7 µM. The TGI in experiment [7] is 31.3 µM and 34.2 µM; in experiment [8], 40.2 µM and 35.3 µM; in experiment [9], 29.8 µM and > 100 µM; in experiment [10] it was 37.9 µM and 31.9 µM; in experiment [11], 31.9 µM and 35.7 µM.

As for `O=C1Oc2ccccc2C1C/C(=N\Nc1ccccc1)c1ccccc1O` (stereo not given), the TGI in experiment [1] was more than 100 µM; in experiment [2], more than 100 µM; in experiment [3], more than 100 µM; in [4] it was 78.8 µM; in experiment [5], more than 100 µM; in experiment [6], more than 100 µM. The TGI in experiment [7] was 76.2 µM; in experiment [8] it was 78.7 µM; in experiment [9], more than 100 µM; in [10], more than 100 µM; in experiment [11], more than 100 µM.

Regarding `Clc1ccc(Cl)c(N=Nc2cc3c4c(c2)CCN4CCC3)c1`, the TGI in [1], in [2], in experiment [3], in experiment [4], in experiment [5] and in [6] was more than 10 µM each time. Also, the TGI in [7], in [8], in experiment [9], in experiment [10] and in experiment [11] was more than 10 µM in each case.

With `CCc1n[nH]c(=O)n1CCCCCCCCn1c(CC)n[nH]c1=O`, the TGI in experiment [1], in experiment [2], in experiment [3], in experiment [4], in experiment [5] and in [6] was more than 100 µM each time. Moreover, the TGI in experiment [7], in experiment [8], in [9], in [10] and in experiment [11] was more than 100 µM in each case.

As for `[N-]=[N+]=Nc1ccccc1-c1ccccc1[N+](=O)[O-]`, the TGI in experiment [1], in experiment [2], in experiment [4], in [5], in experiment [6] and in [7] was more than 100 µM in each case. The TGI in [8] was 65.1 µM; in [9], more than 100 µM; in experiment [10] it was more than 100 µM; in experiment [11], more than 100 µM.

With `CCCCOCCOCCOC1=CC(=O)c2c(O)ccc(O)c2C1=O`, the TGI in experiment [1] stood at 2.95 µM; in [2], 3.43 µM; in experiment [3], 6.01 µM; in experiment [4], 6.28 µM; in experiment [5] it was 3.39 µM; in experiment [6], 1.49 µM. Moreover, the TGI in [7] turned out to be 0.356 µM; in experiment [8], 8.22 µM; in experiment [9], 3.4 µM; in experiment [10] it was 3.52 µM; in experiment [11] it was 3.06 µM.

For `NS(=O)(=O)c1ccc(NC(=O)N/N=C/c2ccccc2O)cc1`, the TGI in experiment [1], in experiment [2], in experiment [3], in experiment [4], in [5] and in experiment [6] was more than 100 µM in each case. In addition, the TGI in experiment [7] is 55.6 µM; in experiment [8] it was more than 100 µM; in [9], more than 100 µM; in [10], more than 100 µM; in [11], more than 100 µM.

For the molecule `COC1(CC[C@@H](C)COC2OC(CO)C(O)C(O)C2O)O[C@H]2C[C@H]3[C@@H]4CC=C5C[C@@H](OC6OC(CO)C(OC7OC(C)C(O)C(O)C7O)C(O)C6OC6OC(C)C(O)C(O)C6O)CC[C@]5(C)[C@H]4CC[C@]3(C)[C@H]2[C@@H]1C` (stereo not given in full), the TGI in experiment [1] came out at 4.02 µM; in experiment [2], 4.22 µM; in [3], 20.2 µM; in experiment [4], 7.97 µM; in [5] it was 1.99 µM; in experiment [6], 5.09 µM. In addition, the TGI in experiment [7] was 4.18 µM; in experiment [8], more than 26.1 µM; in experiment [9] it was 6.72 µM; in [10], 8.5 µM; in experiment [11], 2.21 µM. The GI50 in [2] is 1.55 µM; in experiment [3], 7.6 µM; in experiment [4], 2.32 µM; in experiment [5] it was 0.645 µM; in [6] it was 1.96 µM; in experiment [8] it was 5.36 µM. Further, the GI50 in [9] was 2.44 µM; in experiment [10] it was 3.26 µM; in experiment [11] it was 0.795 µM.

Regarding `CC(=O)OI1NC(=O)c2ccccc21`, the TGI in experiment [1], in experiment [2], in experiment [3], in experiment [4], in experiment [5] and in experiment [6] was more than 100 µM each time. Further, the TGI in [7], in experiment [8], in [9], in experiment [10] and in experiment [11] was more than 100 µM in each case.

Take `FC(F)(F)c1ccc(C2ON=C(c3ccccc3)N2C23CC4CC(CC(C4)C2)C3)cc1` (stereo not given): the TGI in experiment [1], in [2], in experiment [3], in experiment [4], in experiment [5] and in [6] was more than 10 µM each time. Besides, the TGI in experiment [7], in experiment [8], in [9], in [10] and in experiment [11] was more than 10 µM throughout.

Take `O=C(CNc1ccccn1)Nn1cnc2ccc(S(=O)(=O)Nc3ccccn3)cc2c1=O`: the TGI in [1], in experiment [2], in [3], in experiment [4], in experiment [5] and in [6] was more than 100 µM each time. The TGI in experiment [7], in [8], in experiment [9], in experiment [10] and in experiment [11] was more than 100 µM throughout.

With `C1CNOCCCONCCCNOCCCONC1`, the TGI in experiment [1] is more than 100 µM; in experiment [2], more than 100 µM; in experiment [3], more than 100 µM; in experiment [4] it was 82.1 µM; in [5] it was more than 100 µM; in [6] it was 99.2 µM. Further, the TGI in experiment [7], in experiment [8], in [9], in [10] and in experiment [11] was more than 100 µM each time.
